We go through 13 compounds from ChEMBL document CHEMBL1154600, “Knowledge-based characterization of similarity relationships in the human protein-tyrosine phosphatase family for rational inhibitor design” (J Med Chem, 2009).

For test [1], the target named is Receptor-type tyrosine-protein phosphatase beta (Homo sapiens, UniProt P23467). Put plainly: Inhibition of PTPRB.
The target of test [2] is Tyrosine-protein phosphatase non-receptor type 6 (Homo sapiens, UniProt P29350).
The target of test [3] is T1, Receptor-type tyrosine-protein phosphatase C (Homo sapiens, UniProt P08575).
T1 sequence (P08575 whole entry): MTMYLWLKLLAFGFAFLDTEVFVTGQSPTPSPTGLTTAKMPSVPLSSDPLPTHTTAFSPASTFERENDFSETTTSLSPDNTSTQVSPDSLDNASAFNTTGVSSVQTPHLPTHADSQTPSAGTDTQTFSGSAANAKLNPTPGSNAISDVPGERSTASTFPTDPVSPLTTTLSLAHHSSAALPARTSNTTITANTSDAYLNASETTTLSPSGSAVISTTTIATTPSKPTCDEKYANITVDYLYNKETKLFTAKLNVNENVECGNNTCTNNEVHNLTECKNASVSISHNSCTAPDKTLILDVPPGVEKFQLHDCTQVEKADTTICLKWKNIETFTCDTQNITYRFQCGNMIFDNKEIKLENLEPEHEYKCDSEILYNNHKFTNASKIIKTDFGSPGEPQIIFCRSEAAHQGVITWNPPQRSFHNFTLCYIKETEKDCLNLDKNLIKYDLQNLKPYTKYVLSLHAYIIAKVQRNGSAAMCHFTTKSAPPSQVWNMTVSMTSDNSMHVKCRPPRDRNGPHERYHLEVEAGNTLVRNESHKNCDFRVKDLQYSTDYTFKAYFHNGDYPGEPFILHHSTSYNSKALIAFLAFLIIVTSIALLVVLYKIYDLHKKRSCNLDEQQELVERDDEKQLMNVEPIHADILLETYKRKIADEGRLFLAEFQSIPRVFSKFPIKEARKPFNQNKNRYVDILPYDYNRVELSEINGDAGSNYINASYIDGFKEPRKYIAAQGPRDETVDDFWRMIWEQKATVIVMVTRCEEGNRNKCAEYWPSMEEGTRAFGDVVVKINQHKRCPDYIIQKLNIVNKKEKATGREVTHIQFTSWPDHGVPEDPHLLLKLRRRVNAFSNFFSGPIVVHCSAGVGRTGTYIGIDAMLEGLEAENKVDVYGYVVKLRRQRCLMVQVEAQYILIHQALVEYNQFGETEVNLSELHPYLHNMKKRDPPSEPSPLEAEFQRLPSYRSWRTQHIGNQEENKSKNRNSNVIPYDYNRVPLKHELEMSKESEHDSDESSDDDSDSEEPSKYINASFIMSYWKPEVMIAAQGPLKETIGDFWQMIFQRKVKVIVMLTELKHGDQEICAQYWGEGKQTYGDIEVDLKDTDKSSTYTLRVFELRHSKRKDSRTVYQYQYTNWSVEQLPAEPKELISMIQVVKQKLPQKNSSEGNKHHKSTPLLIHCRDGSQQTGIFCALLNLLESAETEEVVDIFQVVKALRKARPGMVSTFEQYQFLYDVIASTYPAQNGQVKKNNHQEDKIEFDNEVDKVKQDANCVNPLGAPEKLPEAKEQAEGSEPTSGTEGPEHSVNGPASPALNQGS
Put plainly: Inhibition of PTPRC.

In test [4] the target is Receptor-type tyrosine-protein phosphatase epsilon (Homo sapiens, UniProt P23469).
Receptor-type tyrosine-protein phosphatase epsilon, sequence (P23469 whole entry): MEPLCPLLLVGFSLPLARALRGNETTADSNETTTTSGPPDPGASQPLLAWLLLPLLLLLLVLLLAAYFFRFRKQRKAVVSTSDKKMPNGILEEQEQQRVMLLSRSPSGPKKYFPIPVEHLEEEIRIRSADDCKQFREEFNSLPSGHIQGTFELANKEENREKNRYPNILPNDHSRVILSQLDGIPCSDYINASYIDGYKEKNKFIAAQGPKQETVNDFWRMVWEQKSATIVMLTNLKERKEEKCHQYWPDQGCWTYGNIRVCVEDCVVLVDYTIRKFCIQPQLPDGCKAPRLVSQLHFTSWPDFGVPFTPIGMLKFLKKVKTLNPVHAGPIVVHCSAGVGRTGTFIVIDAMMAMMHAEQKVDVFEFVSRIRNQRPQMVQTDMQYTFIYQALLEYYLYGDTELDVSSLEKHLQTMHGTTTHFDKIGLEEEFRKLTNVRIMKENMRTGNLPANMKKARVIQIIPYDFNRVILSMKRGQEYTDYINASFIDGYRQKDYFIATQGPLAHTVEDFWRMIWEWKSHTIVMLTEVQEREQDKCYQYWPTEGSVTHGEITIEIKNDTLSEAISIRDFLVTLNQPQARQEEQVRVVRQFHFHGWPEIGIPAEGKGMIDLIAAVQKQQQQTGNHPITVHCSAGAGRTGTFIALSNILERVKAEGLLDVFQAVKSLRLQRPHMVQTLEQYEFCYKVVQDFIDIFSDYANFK
Test [5] has as its target T2, Tyrosine-protein phosphatase non-receptor type 2 (Homo sapiens, UniProt P17706).
T2 sequence (P17706 whole entry): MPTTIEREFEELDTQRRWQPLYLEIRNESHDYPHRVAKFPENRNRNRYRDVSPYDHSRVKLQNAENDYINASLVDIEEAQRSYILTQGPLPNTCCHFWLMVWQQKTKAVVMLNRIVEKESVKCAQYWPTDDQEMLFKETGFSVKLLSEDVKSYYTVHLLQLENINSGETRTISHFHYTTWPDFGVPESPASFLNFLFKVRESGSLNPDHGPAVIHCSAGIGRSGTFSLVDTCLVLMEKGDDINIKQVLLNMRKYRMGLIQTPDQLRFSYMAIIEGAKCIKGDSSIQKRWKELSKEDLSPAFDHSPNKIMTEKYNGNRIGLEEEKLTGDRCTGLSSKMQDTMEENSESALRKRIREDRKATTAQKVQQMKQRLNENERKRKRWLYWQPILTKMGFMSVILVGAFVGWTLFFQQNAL

Test [6] deals with Receptor-type tyrosine-protein phosphatase F (Homo sapiens, UniProt P10586). Put plainly: Inhibition of PTPRF.
Receptor-type tyrosine-protein phosphatase F, sequence (P10586 whole entry): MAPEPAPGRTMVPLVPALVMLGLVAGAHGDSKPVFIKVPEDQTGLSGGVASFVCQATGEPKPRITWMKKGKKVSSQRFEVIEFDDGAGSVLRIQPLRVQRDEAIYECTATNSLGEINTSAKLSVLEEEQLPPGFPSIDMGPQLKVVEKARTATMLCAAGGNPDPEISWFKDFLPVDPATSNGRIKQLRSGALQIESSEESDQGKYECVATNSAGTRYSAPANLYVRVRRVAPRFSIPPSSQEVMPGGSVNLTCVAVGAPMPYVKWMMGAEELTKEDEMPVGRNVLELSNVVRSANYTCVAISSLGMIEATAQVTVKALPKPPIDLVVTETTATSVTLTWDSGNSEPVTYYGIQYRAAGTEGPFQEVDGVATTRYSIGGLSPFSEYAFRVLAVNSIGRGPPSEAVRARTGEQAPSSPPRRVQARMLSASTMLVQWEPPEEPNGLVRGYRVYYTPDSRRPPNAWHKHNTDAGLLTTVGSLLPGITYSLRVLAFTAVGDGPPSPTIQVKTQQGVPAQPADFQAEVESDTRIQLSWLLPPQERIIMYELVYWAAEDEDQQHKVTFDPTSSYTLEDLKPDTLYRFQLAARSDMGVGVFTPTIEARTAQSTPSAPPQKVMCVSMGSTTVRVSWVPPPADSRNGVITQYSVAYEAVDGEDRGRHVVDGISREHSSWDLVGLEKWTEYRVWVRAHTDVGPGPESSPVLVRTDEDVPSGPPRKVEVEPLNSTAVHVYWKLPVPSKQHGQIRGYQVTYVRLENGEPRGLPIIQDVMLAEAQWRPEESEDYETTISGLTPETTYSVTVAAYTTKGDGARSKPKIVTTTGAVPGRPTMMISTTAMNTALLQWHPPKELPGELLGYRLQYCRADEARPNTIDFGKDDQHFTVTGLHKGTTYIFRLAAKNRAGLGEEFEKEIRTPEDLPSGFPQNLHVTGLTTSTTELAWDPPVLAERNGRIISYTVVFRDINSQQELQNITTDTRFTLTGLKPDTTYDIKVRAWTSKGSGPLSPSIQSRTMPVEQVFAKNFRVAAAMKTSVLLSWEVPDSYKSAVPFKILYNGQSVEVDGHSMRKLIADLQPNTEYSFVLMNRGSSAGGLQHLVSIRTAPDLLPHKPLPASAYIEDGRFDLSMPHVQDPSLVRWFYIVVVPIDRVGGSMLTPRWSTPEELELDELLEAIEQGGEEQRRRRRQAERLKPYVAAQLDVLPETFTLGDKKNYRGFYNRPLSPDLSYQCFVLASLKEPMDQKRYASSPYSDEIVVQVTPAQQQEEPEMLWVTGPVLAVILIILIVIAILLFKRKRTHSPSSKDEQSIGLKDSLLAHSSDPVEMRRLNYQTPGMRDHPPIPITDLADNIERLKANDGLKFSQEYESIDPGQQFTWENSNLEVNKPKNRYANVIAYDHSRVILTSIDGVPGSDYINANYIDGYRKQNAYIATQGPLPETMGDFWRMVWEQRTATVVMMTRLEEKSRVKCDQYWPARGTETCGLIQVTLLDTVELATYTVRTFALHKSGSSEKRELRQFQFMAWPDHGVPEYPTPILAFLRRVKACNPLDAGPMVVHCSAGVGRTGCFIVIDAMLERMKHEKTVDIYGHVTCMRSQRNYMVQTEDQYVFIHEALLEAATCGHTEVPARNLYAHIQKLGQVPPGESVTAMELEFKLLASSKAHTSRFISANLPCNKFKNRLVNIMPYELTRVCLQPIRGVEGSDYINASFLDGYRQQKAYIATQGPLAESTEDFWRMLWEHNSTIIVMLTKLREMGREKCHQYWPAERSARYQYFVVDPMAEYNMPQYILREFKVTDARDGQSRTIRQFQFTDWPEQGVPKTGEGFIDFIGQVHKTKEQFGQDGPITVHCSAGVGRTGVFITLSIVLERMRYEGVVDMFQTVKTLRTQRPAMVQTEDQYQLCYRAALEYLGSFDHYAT
Test [7] concerns the target Receptor-type tyrosine-protein phosphatase alpha (Homo sapiens, UniProt P18433). Put plainly: Inhibition of PTPRA.
The target of test [8] is Tyrosine-protein phosphatase non-receptor type 2 (Homo sapiens) (UniProt P17706). Put plainly: Inhibition of PTPN2.

Tyrosine-protein phosphatase non-receptor type 6, sequence (P29350 whole entry): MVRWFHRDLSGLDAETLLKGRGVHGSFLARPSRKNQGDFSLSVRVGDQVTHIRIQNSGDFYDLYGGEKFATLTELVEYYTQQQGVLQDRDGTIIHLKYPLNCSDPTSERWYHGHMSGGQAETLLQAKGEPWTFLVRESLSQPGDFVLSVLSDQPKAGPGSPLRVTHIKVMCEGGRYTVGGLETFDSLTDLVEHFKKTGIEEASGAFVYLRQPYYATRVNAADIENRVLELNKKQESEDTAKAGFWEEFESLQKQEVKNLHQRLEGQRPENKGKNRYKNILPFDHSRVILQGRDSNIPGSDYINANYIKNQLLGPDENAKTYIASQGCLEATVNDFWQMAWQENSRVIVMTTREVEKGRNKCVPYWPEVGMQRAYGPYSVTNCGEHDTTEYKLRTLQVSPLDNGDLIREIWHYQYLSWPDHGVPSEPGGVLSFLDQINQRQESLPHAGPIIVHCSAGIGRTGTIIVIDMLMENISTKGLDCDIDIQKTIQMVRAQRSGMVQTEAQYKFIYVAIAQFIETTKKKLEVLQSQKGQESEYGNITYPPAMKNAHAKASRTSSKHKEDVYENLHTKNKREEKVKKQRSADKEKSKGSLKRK
Receptor-type tyrosine-protein phosphatase alpha, sequence (P18433 whole entry): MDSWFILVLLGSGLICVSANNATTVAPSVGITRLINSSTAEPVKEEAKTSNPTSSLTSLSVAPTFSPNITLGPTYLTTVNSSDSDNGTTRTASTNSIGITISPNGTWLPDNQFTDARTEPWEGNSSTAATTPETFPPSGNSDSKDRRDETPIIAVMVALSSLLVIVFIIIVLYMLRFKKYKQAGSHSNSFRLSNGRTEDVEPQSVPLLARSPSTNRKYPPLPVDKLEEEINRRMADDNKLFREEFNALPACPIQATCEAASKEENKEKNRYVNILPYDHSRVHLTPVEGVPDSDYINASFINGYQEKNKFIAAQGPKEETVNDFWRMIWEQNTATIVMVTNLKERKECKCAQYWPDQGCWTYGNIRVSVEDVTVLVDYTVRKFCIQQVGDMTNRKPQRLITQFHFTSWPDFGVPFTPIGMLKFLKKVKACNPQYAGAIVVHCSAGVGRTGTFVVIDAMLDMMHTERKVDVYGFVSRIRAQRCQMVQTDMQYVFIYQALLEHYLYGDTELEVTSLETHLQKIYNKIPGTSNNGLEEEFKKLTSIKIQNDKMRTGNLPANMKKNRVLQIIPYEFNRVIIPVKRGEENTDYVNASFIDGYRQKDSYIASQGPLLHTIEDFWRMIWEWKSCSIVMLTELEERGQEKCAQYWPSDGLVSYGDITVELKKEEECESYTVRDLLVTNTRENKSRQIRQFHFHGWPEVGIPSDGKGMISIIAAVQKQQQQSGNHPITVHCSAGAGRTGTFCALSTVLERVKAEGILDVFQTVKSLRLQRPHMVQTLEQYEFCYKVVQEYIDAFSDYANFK

The Ki is a dissociation constant, usually derived from enzyme kinetics or from competition with a known ligand. Higher therefore signals a looser hold on the target. As to `O=C(O)C(=O)Nc1sc2c(c1C(=O)O)CCCC2`, the Ki is 19 µM in test [1], 100 µM in test [2] and 41 µM in test [3].
With `O=C(O)C(=O)Nc1ccccc1C(=O)O`, the inhibition constant Ki came to 130 µM in test [4], 33 µM in test [1] and 510 µM in test [2].
In the case of `O=C(O)C(=O)Nc1sc2c(c1C(=O)O)CCNC2`, the Ki is 1100 µM in test [4]; 560 µM in test [1]; more than 2000 µM in test [2]; 59 µM in test [3]; 0.29 µM in test [5].
Turning to `O=C(O)COc1c(C(=O)O)sc(-c2ccccc2)c1Br`, the Ki in test [6] is more than 500 µM.
Take `CC1(C)CC(Nc2cccc(-c3sc(C(=O)O)c(OCC(=O)O)c3Br)c2)CC(C)(C)C1`: the Ki in test [6] was more than 1000 µM.
In the case of `O=C(O)C(=O)Nc1ccsc1C(=O)O`, the Ki was more than 2000 µM in test [7], 360 µM in test [4], 260 µM in test [3] and 58 µM in test [5].
`O=C(O)C(=O)Nc1ccc(I)cc1C(=O)O`: the inhibition constant (Ki) in test [4] is 33 µM; in test [1], 17 µM; in test [2] it was 80 µM; in test [3], 49 µM; in test [5], 14 µM.
`O=C(O)C(=O)Nc1ccc2cc[nH]c2c1C(=O)O`: the Ki in test [7] was determined as 180 µM; in test [4], 33 µM; in test [6], 450 µM; in test [1], 3.6 µM; in test [2], 28 µM; in test [3], 20 µM. The Ki in test [5] is 8 µM.
With `O=C(O)C(=O)Nc1cc2[nH]ccc2cc1C(=O)O`, the Ki in test [7] amounted to 800 µM; in test [4] it was 66 µM; in test [6] it was 550 µM; in test [1], 6 µM; in test [2] it was 16 µM; in test [3], 56 µM. Further, the affinity in test [5], expressed as Ki, was 14 µM.
On to `O=C(O)C(=O)Nc1sccc1C(=O)O`, for which the Ki in test [4] was 740 µM; in test [3], 210 µM; in test [5], 62 µM.
Consider `O=C(O)C(=O)Nc1cc2ccccc2cc1C(O)O`, for which the Ki in test [7] was found to be 190 µM; in test [4], 45 µM; in test [6] it was 68 µM; in test [1] it was 14 µM; in test [2] it was 94 µM; in test [3], 37 µM. In addition, in test [5], the affinity corresponds to a Ki of 9.9 µM.
Consider `O=C(O)C(=O)Nc1sc2c(c1C(=O)O)CCO[C@H]2COC1=NS(=O)(=O)c2ccccc21`, for which the Ki in test [8] is 1.1 µM; in test [7], more than 500 µM; in test [4] it was more than 500 µM; in test [6], 176 µM; in test [1], 21 µM; in test [2] it was 289 µM. Besides, the figures for the Ki in test [3] and in test [5] were 489 µM and 0.6 µM, respectively.
On to `O=C(O)COc1c(C(=O)O)sc2c1sc1ccccc12`, for which the Ki is 4.1 µM in test [8], 1100 µM in test [6], more than 1250 µM in test [3] and 9.2 µM in test [5].
